Patent US4532255A, “Amidine compounds and anticomplement agent comprising same” (Torii & Co., Ltd., priority 1980, dated 1985)
Several values for one entry are separate records, joined by “and”; a condition that tells them apart may be missing. Equal entries are not always repeated.

Legend:
Trypsin [1] = biological target: T1, Trypsin (Bos taurus, UniProt P00760); test: Anti-trypsin activity (hydrolysis of TAME); format: biochemical; settings: molar concentration inhibiting 50% of TAME hydrolysis; read-out: Trypsin ID50
T1 sequence (P00760 24-246): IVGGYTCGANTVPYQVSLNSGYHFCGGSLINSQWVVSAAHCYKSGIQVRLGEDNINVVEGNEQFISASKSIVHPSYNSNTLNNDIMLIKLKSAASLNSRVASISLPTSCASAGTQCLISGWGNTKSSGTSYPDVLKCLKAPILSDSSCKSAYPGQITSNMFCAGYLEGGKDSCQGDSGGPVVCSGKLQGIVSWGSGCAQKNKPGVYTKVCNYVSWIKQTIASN
Description: (§1) The anti-trypsin, anti-plasmin, anti-kallikrein and anti-thrombin activities were determined according to the method of Muramatsu et al. [M. Muramatsu, T. Onishi, S. Makino, Y. Hayashi and S. Fujii, J. of Biochem., 58, 214 (1965)]. […] The compound No. corresponds to the compound number shown in Examples.

Plasmin [2] = biological target: T2, Plasmin (Homo sapiens, UniProt P00747); test: Anti-plasmin activity (hydrolysis of TAME); format: biochemical; settings: molar concentration inhibiting 50% of TAME hydrolysis; read-out: Plasmin ID50
T2 sequence (P00747 581-810 limits assumed, species assumed): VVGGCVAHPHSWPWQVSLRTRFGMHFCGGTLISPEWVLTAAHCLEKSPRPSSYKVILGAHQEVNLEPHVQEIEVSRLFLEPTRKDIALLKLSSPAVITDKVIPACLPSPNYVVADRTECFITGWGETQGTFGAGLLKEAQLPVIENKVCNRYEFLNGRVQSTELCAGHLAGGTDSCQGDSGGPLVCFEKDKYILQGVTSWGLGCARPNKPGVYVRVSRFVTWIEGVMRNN
T2 sequence (P00747 97-580 partner limits assumed, species assumed): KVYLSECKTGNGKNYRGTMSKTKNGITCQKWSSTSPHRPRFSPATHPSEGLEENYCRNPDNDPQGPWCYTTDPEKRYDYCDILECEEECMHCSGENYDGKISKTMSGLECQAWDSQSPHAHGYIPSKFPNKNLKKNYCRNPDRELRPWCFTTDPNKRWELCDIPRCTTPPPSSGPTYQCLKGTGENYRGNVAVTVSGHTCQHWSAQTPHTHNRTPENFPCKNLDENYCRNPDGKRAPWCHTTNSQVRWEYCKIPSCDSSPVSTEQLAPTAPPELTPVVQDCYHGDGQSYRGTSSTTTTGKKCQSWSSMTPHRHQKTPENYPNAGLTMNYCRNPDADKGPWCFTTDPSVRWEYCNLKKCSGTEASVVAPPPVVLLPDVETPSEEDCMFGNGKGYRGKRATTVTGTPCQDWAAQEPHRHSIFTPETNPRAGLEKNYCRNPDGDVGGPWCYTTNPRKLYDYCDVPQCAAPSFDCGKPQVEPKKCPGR
Description: as §1

Kallikrein = test: Anti-kallikrein activity (hydrolysis of TAME); format: biochemical; settings: molar concentration inhibiting 50% of TAME hydrolysis; read-out: Kallikrein ID50
Description: The anti-trypsin, anti-plasmin, anti-kallikrein and anti-thrombin activities were determined according to the method of Muramatsu et al. [M. Muramatsu, T. Onishi, S. Makino, Y. Hayashi and S. Fujii, J. of Biochem., 58, 214 (1965)]. The data summarized in Table 1 are expressed in terms of molar concentration (ID50) of the test compound which inhibits 50% of the activity of each enzyme to hydrolyze TAME (tosylalginine methyl ester). The compound No. corresponds to the compound number shown in Examples.

Thrombin [3] = biological target: T3, Thrombin (Homo sapiens, UniProt P00734); test: biochemical; settings: for IC50: molar concentration inhibiting 50% of TAME hydrolysis, read-out: Thrombin ID50; for inhibition at 10 µM: at 1×10^-5 M, read-out: Thrombin percentage inhibition
Trypsin [4] = biological target: T1, Trypsin; settings: G. Wagner et al., Pharmazie 1977; cited from earlier work
Plasmin [5] = biological target: T2, Plasmin; settings: G. Wagner et al., Pharmazie 1977; cited from earlier work
Thrombin [6] = biological target: T3, Thrombin; settings: G. Wagner et al., Pharmazie 1977; cited from earlier work
C1r = biological target: T4, C1r (Homo sapiens, UniProt P00736); test: Anti-C1 esterase (C1r) activity (hydrolysis of AAME); format: biochemical; settings: for IC50: AAME hydrolysis, read-out: Anti-C1 activity, C1r ID50
T4 sequence (P00736 464-705 limits assumed): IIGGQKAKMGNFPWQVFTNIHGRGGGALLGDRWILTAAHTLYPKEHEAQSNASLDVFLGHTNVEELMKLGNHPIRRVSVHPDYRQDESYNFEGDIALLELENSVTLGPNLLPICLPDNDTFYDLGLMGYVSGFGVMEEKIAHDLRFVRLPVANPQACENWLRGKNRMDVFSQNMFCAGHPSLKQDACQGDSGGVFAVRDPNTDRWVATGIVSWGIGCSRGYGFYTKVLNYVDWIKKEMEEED
T4 sequence (P00736 18-463 partner limits assumed): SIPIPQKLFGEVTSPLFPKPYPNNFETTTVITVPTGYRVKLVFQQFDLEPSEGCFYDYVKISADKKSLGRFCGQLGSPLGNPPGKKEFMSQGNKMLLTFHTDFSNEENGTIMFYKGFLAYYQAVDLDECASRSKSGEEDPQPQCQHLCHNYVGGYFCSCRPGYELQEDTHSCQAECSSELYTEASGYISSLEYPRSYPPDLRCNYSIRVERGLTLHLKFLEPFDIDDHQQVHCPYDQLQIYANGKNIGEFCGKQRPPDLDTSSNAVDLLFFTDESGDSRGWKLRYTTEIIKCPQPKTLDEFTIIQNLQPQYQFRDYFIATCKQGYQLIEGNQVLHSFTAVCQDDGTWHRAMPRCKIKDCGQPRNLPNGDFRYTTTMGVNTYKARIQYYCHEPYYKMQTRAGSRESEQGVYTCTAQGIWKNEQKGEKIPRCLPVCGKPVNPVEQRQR
Description: The anti-Cl esterase ([…]) activity was determined according to the method of Okamura et al. [K. Okamura, M. Muramatsu and S. Fujii, Biochem. Biophys.

C1s [7] = biological target: T5, C1s (Homo sapiens, UniProt P09871); test: biochemical; settings: ATEE hydrolysis; read-out: Anti-C1 activity, C1s ID50
T5 sequence (P09871 438-688 limits assumed): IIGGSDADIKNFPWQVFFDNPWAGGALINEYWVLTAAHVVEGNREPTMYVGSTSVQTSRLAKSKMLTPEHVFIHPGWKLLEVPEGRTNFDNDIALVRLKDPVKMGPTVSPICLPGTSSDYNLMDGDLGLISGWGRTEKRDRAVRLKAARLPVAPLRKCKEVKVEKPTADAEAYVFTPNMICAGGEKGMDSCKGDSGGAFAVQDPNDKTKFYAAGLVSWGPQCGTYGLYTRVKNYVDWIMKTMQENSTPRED
T5 sequence (P09871 16-437 partner limits assumed): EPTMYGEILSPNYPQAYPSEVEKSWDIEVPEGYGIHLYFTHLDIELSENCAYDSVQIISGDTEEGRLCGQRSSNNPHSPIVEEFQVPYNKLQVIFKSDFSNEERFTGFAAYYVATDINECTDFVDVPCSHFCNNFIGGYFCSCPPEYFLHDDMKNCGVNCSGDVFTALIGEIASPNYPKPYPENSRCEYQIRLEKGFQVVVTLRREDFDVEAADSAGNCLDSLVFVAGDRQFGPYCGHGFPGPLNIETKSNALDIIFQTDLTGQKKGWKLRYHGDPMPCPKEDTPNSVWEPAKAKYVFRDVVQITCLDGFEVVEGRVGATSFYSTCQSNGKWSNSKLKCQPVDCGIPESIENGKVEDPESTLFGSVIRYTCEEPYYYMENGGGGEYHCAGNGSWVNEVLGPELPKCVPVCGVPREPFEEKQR
Description: The anti-Cl esterase (Clr, Cls) activity was determined according to the method of Okamura et al. [K. Okamura, M. Muramatsu and S. Fujii, Biochem. Biophys. […] The figures in Table 2 have the following meanings:
Cls: Molar concentration of the test compound which inhibits 50% of the ability of Cls to hydrolyse ATEE (acetyltyrosin ethyl ester).

[8] = system: complement mediated hemolysis; test: Inhibition of complement mediated hemolysis; format: cell-based
Description: The principle of this method is based on the fact that hemolysis is caused by the activation of complement, when the latter is added to a complex (immune complex) of erythrocytes and the antibody thereof. The degree of hemolysis varies in proportion to the amount of complement added. Therefore, when a known amount of complement admixed with a C1 esterase inhibitor is used, the hemolysis must be suppressed in proportion to the inhibitory activity.

Forssman shock = Forssman shock (survival time after hemolysin); format: in vivo, Male Hartlay guinea pig; settings: 5 minutes before hemolysin
From the text: Quite different from other animals, guinea pig has on the surface of its organs a specific antigen called Forssman antigen which specifically reacts with the antibody of sheep erythrocyte. Forssman shock is based on the above principle and is a shock caused by the administration of antibody of sheep erythrocyte to a guinea pig. The Forssman shock was investigated in detail by many researchers and it was definitely shown that this shock is a model case where the complement plays the principal part and that the shock is associated with a classical pathway in which the complement system is activated progressively starting from C1. Since the participation of complement in autoimmune diseases has been established, the Forssman shock can be said to be a useful means for testing a drug for autoimmune diseases. A drug effective for the treatment of Forssman shock is useful as a drug of autoimmune diseases. [Anti-trypsin, anti-plasmin, anti-kallikrein and anti-thrombin activities]
The experiment was performed according to the method of I. G. Offerness et al. [Biochem. Pharmacol., 27 (14), 1873-1878 (1978)]. Male Hartlay guinea pig of about 300 g in body weight was used. Each guinea pig of the control group was administered intravenously with 0.5 ml (minimum dose to cause the shock) of hemolysin (commercial hemolysin, 5,000 U as assayed by the method of Ogata) and the time elapsed until death was observed. For the test group, each guinea pig was administered intravenously with the test compound 5 minutes before the administration of hemolysin and the time (second) elapsed until death was observed.

[9] = Toxicity, median lethal dose (LD50); settings: in vivo
C1s [10] = biological target: T5, C1s; test: biochemical; settings: at 1×10^-5 M; read-out: Anti-C1 activity, C1s percent inhibition
complement = settings: Y. Takada et al., Immunology 1978; cited from earlier work
[11] = 1.0 mg/kg intravenous, control average 465 (No. 27), 428 (No. 22)

Compound	IC50 (Trypsin [1]) [µM]	IC50 (Plasmin [2]) [µM]	IC50 (Kallikrein) [µM]	IC50 (Thrombin [3]) [µM]	inhibition at 10 µM (Thrombin [3]) [%]	IC50 (C1r) [µM]	IC50 (C1s [7]) [µM]	Inhibition of complement mediated hemolysis (%) ([8]; 1 × 10^-4)	Inhibition of complement mediated hemolysis (%) ([8]; 1 × 10^-5)	Inhibition of complement mediated hemolysis (%) ([8]; 1 × 10^-6)	Inhibition of complement mediated hemolysis (%) ([8]; 1 × 10^-7)	Time elapsed until death, individual animal (Forssman shock; 1.0 mg/kg intravenous)	Time elapsed until death, average (Forssman shock; [11]) [s]	LD50 ([9]; ip) [mg/kg]	LD50 ([9]; po) [mg/kg]	also measured
N=C(N)c1ccc2cc(O)ccc2c1 [6-amidino-2-naphthol, reference compound]	> 1000	440	> 1000	> 1000	–	–	–	–	–	–	–	–	–	–	–	Trypsin inhibition in words (Trypsin [4]): inhibits trypsin, plasmin and thrombin; Plasmin inhibition in words (Plasmin [5]): inhibits trypsin, plasmin and thrombin; Thrombin inhibition in words (Thrombin [6]): inhibits trypsin, plasmin and thrombin
N=C(N)c1ccc2cc(OC(=O)c3ccc(CN)cc3)ccc2c1 [Compound 22, 6-amidino-2-naphthyl 4-aminomethylbenzoate]	4	4	3	–	26	0.3	0.2	100	99	90	48	240 s and 630 s and 250 s and 570 s and 440 s and 675 s	468	200	2500	Time elapsed until death, individual animal (Forssman shock; 3.0 mg/kg intravenous): 745 s and 1410 s and 600 s and 885 s and 455 s and 435 s; Time elapsed until death, average (Forssman shock; 3.0 mg/kg intravenous, control average 428): 755 s
N=C(N)Nc1ccc(C(=O)Oc2ccc3cc(C(=N)N)ccc3c2)cc1 [Compound 27, 6-amidino-2-naphthyl 4-guanidinobenzoate]	–	–	5	3	–	0.1	0.05	100	100	97	44	740 sec. and 820 sec. and Survival and 670 sec. and 1325 sec.	> 889	200	2500	Time elapsed until death, individual animal (Forssman shock; 0.5 mg/kg intravenous): 732 s and 740 s and 723 s and 724 s and 590 s and 410 s; Time elapsed until death, average (Forssman shock; 0.5 mg/kg intravenous, control average 465): 653 s
N=C(N)c1ccc2cc(OC(=O)CCc3ccc(N)cc3)ccc2c1 [Compound 51, 6-amidino-2-naphthyl 4-aminophenylpropionate]	10	6	–	–	35	–	–	54	6	1	0	–	–	–	–	inhibition at 10 µM (C1r; at 1×10^-5 M, read-out: Anti-C1 activity, C1r percent inhibition): 18%; inhibition at 10 µM (C1s [10]): 21%
CC(=O)N[C@@H](CC(C)C)C(=O)N[C@@H](CC(C)C)C(=O)N[C@H](C=O)CCCNC(=N)N [Leupeptin, reference compound]	–	–	–	–	–	–	–	97	52	0	0	–	–	–	–	Anti-complement activity in words (complement): having an anti-complement activity
